Source: the NIST ThermoML archive (doi:10.1021/je800579j)
± gives the expanded uncertainty stated by the source.

What was measured:
[1] = refractive index (Na D-line) (dimensionless); conditions: Liquid, Standard Abbe refractometry
[2] = Liquid, Pycnometric method
[3] = xn = mol fraction of the nth substance listed; conditions: Liquid, Pycnometric method, x1 = 1
[4] = refractive index (Na D-line) (dimensionless); xn = mol fraction of the nth substance listed; conditions: Liquid, Standard Abbe refractometry, x1 = 1

| Structure (SMILES) | refractive index ([1]; 288.15 K) | refractive index ([1]; 293.15 K) | refractive index ([1]; 298.15 K) | refractive index ([1]; 303.15 K) | refractive index ([1]; 308.15 K) | refractive index ([1]; 313.15 K) | refractive index ([1]; 318.15 K) | mass density ([2]; 288.15 K) | mass density ([2]; 293.15 K) | mass density ([2]; 298.15 K) | mass density ([2]; 303.15 K) | mass density ([2]; 308.15 K) | mass density ([2]; 313.15 K) | mass density ([2]; 318.15 K) | further results |
| --- | --- | --- | --- | --- | --- | --- | --- | --- | --- | --- | --- | --- | --- | --- | --- |
| Cc1ccccc1C [1,2-dimethylbenzene] | 1.5083 ± 0.0007 | 1.5055 ± 0.0007 | 1.5029 ± 0.0007 | 1.5002 ± 0.0007 | 1.4975 ± 0.0007 | 1.4948 ± 0.0007 | 1.4921 ± 0.0007 | 884.09 ± 0.67 kg/m3 | 879.83 ± 0.66 kg/m3 | 875.57 ± 0.67 kg/m3 | 871.31 ± 0.67 kg/m3 | 867.05 ± 0.68 kg/m3 | 862.79 ± 0.68 kg/m3 | 858.53 ± 0.69 kg/m3 | – |
| C1COCCO1 [1,4-dioxane] + Cc1ccc(C)cc1 | – | – | – | – | – | – | – | – | – | – | – | – | – | – | mass density ([3]; 288.15 K): 1039.23 ± 0.87 kg/m3; mass density ([3]; 293.15 K): 1033.59 ± 0.87 kg/m3; mass density ([3]; 298.15 K): 1027.95 ± 0.87 kg/m3; mass density ([3]; 303.15 K): 1022.32 ± 0.88 kg/m3; mass density ([3]; 308.15 K): 1016.68 ± 0.88 kg/m3; mass density ([3]; 313.15 K): 1011.05 ± 0.89 kg/m3; mass density ([3]; 318.15 K): 1005.42 ± 0.89 kg/m3; refractive index ([4]; 288.15 K): 1.4245 ± 0.0006; refractive index ([4]; 293.15 K): 1.4224 ± 0.0006; refractive index ([4]; 298.15 K): 1.4203 ± 0.0006; refractive index ([4]; 303.15 K): 1.4182 ± 0.0006; refractive index ([4]; 308.15 K): 1.4161 ± 0.0006; refractive index ([4]; 313.15 K): 1.4139 ± 0.0006; refractive index ([4]; 318.15 K): 1.4117 ± 0.0006 |
| C1COCCO1 [1,4-dioxane] | 1.4245 ± 0.0006 | 1.4224 ± 0.0006 | 1.4203 ± 0.0006 | 1.4182 ± 0.0006 | 1.4161 ± 0.0006 | 1.4139 ± 0.0006 | 1.4117 ± 0.0006 | 1039.23 ± 0.87 kg/m3 | 1033.59 ± 0.87 kg/m3 | 1027.95 ± 0.87 kg/m3 | 1022.32 ± 0.88 kg/m3 | 1016.68 ± 0.88 kg/m3 | 1011.05 ± 0.89 kg/m3 | 1005.42 ± 0.89 kg/m3 | – |
